In BindingDB's records for patent US12209081 (Katholieke Universiteit Leuven, 2025):

Target: Transient receptor potential cation channel subfamily M member 3 (UniProt J9SQF3)
Experiment: Monitoring the TRPM3 Ion Channel Driven Ca2+ Uptake
Method: In order to monitor the inhibition of the mouse TRPM3α2 (mTRPM3) ion channel by the compounds of the invention, a cellular system making use of an mTRPM3alpha2 or hTRPM3 overexpressing cell line (flip-in HEK293) was used. The TRPM3 channel was stimulated/opened with Pregnenolone sulfate (PS) (50 μM) which results in Ca2+ influx. For mTRPM3, the intracellular Ca2+ was measured with a Calcium responsive dye. Fluor-4 AM ester (Invitrogen). Cells were cultured until a confluence of 80-90%, washed with Versene (Invitrogen) and detached from the surface by a short incubation with 0.05% Trypsin (Invitrogen). The trypsination process was stopped by the addition of complete cell culture medium (DMEM, glutamax, 10% FCS,NEAA,Pen-Strep). Cells were collected and resuspended in Krebs buffer without Calcium at RT. Prior the cell seeding (±2000 cells/well into a black, 384 well plate (Greiner)) the diluted compound was added in the assay plate, together with the PS dissolved in Krebs buffer containing Calcium. […] Directly after cell addition the plates were read on an Envision fluorescence reader (Perkin Elmer) by an Excitation of 485 nm and emission at 535 nm. Channel inhibition was calculated compared to a non-PS stimulated control versus a condition stimulated with PS (50 μM) with vehicle. The ability of the compounds of the invention to inhibit this activity was determined as: Percentage inhibition=[1-((RFU determined for sample with test compound present—RFU determined for sample with positive control inhibitor) divided by (RFU determined in the presence of vehicle—RFU determined for sample with positive control inhibitor))]*100.

Chain of Transient receptor potential cation channel subfamily M member 3 (J9SQF3 whole entry): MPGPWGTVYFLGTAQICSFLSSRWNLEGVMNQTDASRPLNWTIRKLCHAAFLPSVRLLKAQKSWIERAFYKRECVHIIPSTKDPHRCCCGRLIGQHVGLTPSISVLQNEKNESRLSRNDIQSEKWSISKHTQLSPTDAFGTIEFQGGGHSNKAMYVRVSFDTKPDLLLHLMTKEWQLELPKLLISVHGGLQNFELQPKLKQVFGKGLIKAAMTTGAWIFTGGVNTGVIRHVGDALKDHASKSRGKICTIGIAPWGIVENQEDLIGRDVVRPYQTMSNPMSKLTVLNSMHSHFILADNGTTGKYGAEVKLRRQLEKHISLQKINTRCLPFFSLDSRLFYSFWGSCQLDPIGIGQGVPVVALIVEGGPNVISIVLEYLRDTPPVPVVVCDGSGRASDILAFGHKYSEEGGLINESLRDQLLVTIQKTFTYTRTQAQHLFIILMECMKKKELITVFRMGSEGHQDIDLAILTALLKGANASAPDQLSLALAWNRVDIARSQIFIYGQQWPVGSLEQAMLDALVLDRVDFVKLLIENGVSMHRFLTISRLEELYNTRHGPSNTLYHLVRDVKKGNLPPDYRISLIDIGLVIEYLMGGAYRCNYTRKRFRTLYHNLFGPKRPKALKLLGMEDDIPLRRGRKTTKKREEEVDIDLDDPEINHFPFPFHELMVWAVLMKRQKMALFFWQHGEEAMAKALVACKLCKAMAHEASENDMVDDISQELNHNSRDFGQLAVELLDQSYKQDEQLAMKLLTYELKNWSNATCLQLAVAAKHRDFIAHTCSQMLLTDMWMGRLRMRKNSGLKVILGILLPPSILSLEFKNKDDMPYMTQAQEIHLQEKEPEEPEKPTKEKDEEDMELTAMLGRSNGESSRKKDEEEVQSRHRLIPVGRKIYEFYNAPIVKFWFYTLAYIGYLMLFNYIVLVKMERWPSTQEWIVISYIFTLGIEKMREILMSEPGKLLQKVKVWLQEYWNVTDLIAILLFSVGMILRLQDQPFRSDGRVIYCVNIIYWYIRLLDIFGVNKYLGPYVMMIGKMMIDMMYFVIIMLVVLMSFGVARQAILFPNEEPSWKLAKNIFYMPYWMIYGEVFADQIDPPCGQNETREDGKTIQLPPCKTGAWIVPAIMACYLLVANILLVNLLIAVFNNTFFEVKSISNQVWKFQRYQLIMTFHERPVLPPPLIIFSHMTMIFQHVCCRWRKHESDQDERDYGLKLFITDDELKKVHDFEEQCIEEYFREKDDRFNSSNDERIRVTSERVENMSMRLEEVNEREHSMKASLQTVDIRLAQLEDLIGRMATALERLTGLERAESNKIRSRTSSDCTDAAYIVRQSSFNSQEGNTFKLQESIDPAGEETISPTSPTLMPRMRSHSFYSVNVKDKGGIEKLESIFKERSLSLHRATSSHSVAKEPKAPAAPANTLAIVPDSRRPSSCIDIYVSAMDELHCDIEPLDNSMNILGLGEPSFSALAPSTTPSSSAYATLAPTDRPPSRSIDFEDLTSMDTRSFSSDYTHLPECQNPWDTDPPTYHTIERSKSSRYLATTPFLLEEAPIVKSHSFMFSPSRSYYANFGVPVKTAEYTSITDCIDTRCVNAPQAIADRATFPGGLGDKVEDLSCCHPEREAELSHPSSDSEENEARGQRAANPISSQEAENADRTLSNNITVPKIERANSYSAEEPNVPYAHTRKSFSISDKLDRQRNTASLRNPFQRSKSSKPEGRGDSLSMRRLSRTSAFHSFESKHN

IC50 [nM] | Compound
< 1000 | Cc1oc2ccc(OCc3cccnn3)cc2c1C(=O)NC1CCNC1=O (stereo not drawn) [US12209081, Compound 030]
> 20000 | Cc1oc2ccc(OCc3cncc(C(F)(F)F)c3)cc2c1C(=O)N[C@H]1CCNC1 [US12209081, Compound 055]
< 1000 | Cc1oc2ccc(OCc3cccnc3C(F)(F)F)cc2c1C(=O)NC1(CO)COC1 [US12209081, Compound 133]
< 1000 | Cc1ncsc1COc1ccc2oc(C)c(C(=O)NC3(CN)CCC3)c2c1 [US12209081, Compound 137]
< 1000 | Cc1oc2ccc(OCc3cccnc3C(F)(F)F)cc2c1C(=O)Nc1cc[nH]n1 [US12209081, Compound 138]
< 1000 | Cc1oc2ccc(OCc3cccnc3C#N)cc2c1C(=O)NC1(CO)CCOCC1 [US12209081, Compound 347]
< 1000 | Cc1oc2ccc(OCc3ccnn3CC(F)F)cc2c1C(=O)N[C@H](CO)C(N)=O [US12209081, Compound 456-En-2]
< 1000 | Cc1nc(C)c(COc2ccc3oc(C)c(C(=O)N[C@H](CO)C(N)=O)c3c2)s1 [US12209081, Compound 458-En-2]
